The source of these data is patent publication US20230053688A1, “METHODS TO ALTER LATENCY IN EBV+ MALIGNANCIES” (Cornell University, priority 2020, published 2023).

Like-named read-outs stand apart in the source and are kept apart here. Some results are limits rather than exact numbers.

The test system of assay [1] is LMP1 expression in Kem I cells. The assay is described as follows: microbe, parasite or virus in culture. Format: cell-based, EBV. The following applies: for fold induction at 1 µM: human gammaherpesvirus 4, 48 h; for Average LMP1 Fold Increase / Replicate 1-LMP1 Fold Increase / Replicate 2-LMP1 Fold Increase: Kem I cells, 48 hours.
Assay [2] relates to LMP1 and Cp transcripts in Kem I, Mutu I, and Rael cell lines. In kind it is cell-based, EBV.
The test system of assay [3] is LMP1 and EBNA3C proteins in BL cells. The assay is described as follows: Immunoblot for viral proteins in BL cells. Format: cell-based, EBV. The following applies: 48 hours. The method, then: Immunoblot was performed with the standard procedure using the following antibodies: β-actin (GeneTex), BZLF1 (Santa Cruz), EBNA1 (Santa Cruz), EBNA2 (AbCam), EBNA3C (gift from Benjamin Gewurz), GAPDH (GeneTex), and LMP1 (AbCam).
Since decitabine and 5-azacytadine were the top hits on the epigenetic screen, the effect of these agents on latency II/III transcript and protein expression was investigated as well as the dose-response in a panel of BL cell lines. BL cells were treated with decitabine or 5-azacytidine over a range of doses. Viral antigen expression was evaluated by qRT-PCR, immunoblot, and immunohistochemistry. […] This was associated with upregulation of LMP1 and EBNA3C proteins (FIG. 2B).
For orientation: A western blot detects proteins with antibodies after separation by electrophoresis.

Assay [4] has as its system EBNA2 and LMP1 in Mutu I, Kem I, and Rael cells. The assay is described as follows: Immunohistochemistry on cell blocks, statement across the three cell lines. In kind it is cell-based, EBV. The following applies: 5-Aza at 4 uM, 48 hours, compared with decitabine. The method, then: Cell blocks were generated from cell lines in suspension by fixation in 10% formalin. Immunohistochemistry on cell blocks and mouse tumors was performed with the following antibodies: EBNA2 (abcam #ab90543), LMP1 (Dako #M0897), BZLF1 (Santa Cruz #SC-53904), CD8 (Leica #PA0183), PD-1 (Dako #M3653), PD-L1 (Cell Marque #315M-98). The Halo® image analysis software program (Indica Labs) was used to quantify immunohistochemical stains.
Next it was determined the percentage of cells that convert to expressing latency […] antigens after treatment with decitabine or 5-azacytadine. To do this, EBV antigen expression at the single-cell level was evaluated by immunohistochemistry (IHC) from cell blocks. Cells were treated with 5-azacytidine, decitabine, or vehicle control. Cell blocks were then evaluated by IHC for LMP1 and EBNA2. The percentage of positive cells was quantified with HALO image analysis. […] 5-azacytidine induced a more modest expression of EBNA2 and LMP1 across the three cell lines (FIGS. 2E-F). Based on these observations, decitabine was further investigated as a potential agent to induce expression of immunogenic viral antigens in latency I tumors.

A further assay has as its system Mutu I. The assay is described as follows: Cell viability, CellTiter-Glo. The following applies: read-out: 48 Hour IC50. In general terms: ATP-based viability assays read luminescence as a measure of living cells.
A further assay concerns Kem I. The assay is described as follows: Cell viability, CellTiter-Glo. The following applies: 48 h, read-out: 48 Hour IC50.
A further assay deals with Rael. The experiment in a line: Cell viability, CellTiter-Glo. To be noted: read-out: 48 Hour IC50.
The next assay deals with BL cells. The assay is described as follows: Cell viability, CellTiter-Glo, statements for the BL cell panel.
Setting [5] is: 2.5 uM, average of replicates 1 and 2.
Where [6] appears, read: 2.5 uM, fold change in LMP1 transcript vs vehicle.
Setting [7] is: dose 2.5 uM, LMP1 transcript by in-well qRT-PCR, average of the two replicates.
Where [8] appears, read: dose 2.5 uM, LMP1 transcript by in-well qRT-PCR, screen replicate 1.
Where [9] appears, read: dose 2.5 uM, LMP1 transcript by in-well qRT-PCR, screen replicate 2.

Usually IC50 stands for the concentration at which inhibition is half-maximal.

Turning to `Nc1ncn([C@@H]2O[C@H](CO)[C@@H](O)[C@H]2O)c(=O)n1` [5-azacytidine], the fold induction at 1 µM in assay [1] (read-out: Average LMP1 Fold Increase, Kem I cells, 1 uM, 48 hours, average of replicates 1 and 2) stood at 4.1; in assay [1] (read-out: Replicate 1-LMP1 Fold Increase, Kem I cells, 1 uM, 48 hours, fold change in LMP1 transcript vs vehicle), 5.77; in assay [1] (read-out: Replicate 2-LMP1 Fold Increase, Kem I cells, 1 uM, 48 hours, fold change in LMP1 transcript vs vehicle) it was 2.43. Moreover, the “optimal dose for induction” value in assay [2] (BL cells) was 1 to 4 µM. In assay [2] (at doses <1 μM, 48 hours), the “induction of LMP1 and Cp” value is recorded as “minimal”. In addition, the “LMP1 and EBNA3C proteins (immunoblot)” value in assay [3] is reported as “not associated with significant induction”. The “expression of EBNA2 and LMP1 (IHC)” value in assay [4] was “more modest”. For the same compound, the IC50 with Mutu I is 4 µM; in the assay with Kem I, above 5 µM; in the assay with Rael it was 2.2 µM; in the assay on BL cells, at least 2.2 µM. In the assay on BL cells (at the optimal dose for induction), the “change in cell viability” value is “minimal change”.
With KX2-391, the “Average LMP1 Fold Increase” value in assay [1] (setting [5]) was determined as 1.63. Further, in assay [1] (setting [6]), the “Replicate 1-LMP1 Fold Increase” value was found to be 2.01 and the “Replicate 2-LMP1 Fold Increase” value is given as 1.25.
As to Maraviroc, in assay [1] (setting [5]), the “Average LMP1 Fold Increase” value worked out at 1.08. In assay [1] (setting [6]), the “Replicate 1-LMP1 Fold Increase” value is reported as 0.44 and the “Replicate 2-LMP1 Fold Increase” value is recorded as 1.72.
In the same order, the values of OG-L002 are 1.15, 1.03 and 1.27.
As to Pifithrin-μ, the “Average LMP1 Fold Increase” value in assay [1] (setting [5]) stood at 0.78. Also, in assay [1] (setting [6]), the “Replicate 1-LMP1 Fold Increase” value came to 0.40 and the “Replicate 2-LMP1 Fold Increase” value is reported as 1.17.
Regarding S3I-201, the “Average LMP1 Fold Increase” value in assay [1] (setting [5]) was determined as 0.65. For the same compound, in assay [1] (setting [6]), the “Replicate 1-LMP1 Fold Increase” value turned out to be 0.63 and the “Replicate 2-LMP1 Fold Increase” value is on record as 0.67.
For SN-38, in that order: 1.10, 0.95 and 1.26.
For SNS-314 Mesylate, in that order: 0.51, 0.71 and 0.32.
Turning to VU 0357121, the “Average LMP1 Fold Increase” value in assay [1] (setting [7]) is on record as 0.48 fold. For the same compound, in assay [1] (setting [8]), the “Replicate 1-LMP1 Fold Increase” value is on record as 0.51 fold. In assay [1] (setting [9]), the “Replicate 2-LMP1 Fold Increase” value is on record as 0.46 fold.
In the same order, the values of VU 0364439 are 0.90 fold, 1.34 fold and 0.45 fold.
For VU 0364770, in that order: 1.03 fold, 0.51 fold and 1.55 fold.
